Source: patent US11344549B2 (priority 2017, dated 2022)

Key:
JAK1 kinase = JAK1 kinase (Homo sapiens (Human), UniProt P23458); conditions: read-out: JAK1 IC50
JAK2 kinase = JAK2 kinase (Homo sapiens (Human), UniProt O60674); conditions: read-out: JAK2 IC50
JAK2 kinase, sequence (O60674 826-1132): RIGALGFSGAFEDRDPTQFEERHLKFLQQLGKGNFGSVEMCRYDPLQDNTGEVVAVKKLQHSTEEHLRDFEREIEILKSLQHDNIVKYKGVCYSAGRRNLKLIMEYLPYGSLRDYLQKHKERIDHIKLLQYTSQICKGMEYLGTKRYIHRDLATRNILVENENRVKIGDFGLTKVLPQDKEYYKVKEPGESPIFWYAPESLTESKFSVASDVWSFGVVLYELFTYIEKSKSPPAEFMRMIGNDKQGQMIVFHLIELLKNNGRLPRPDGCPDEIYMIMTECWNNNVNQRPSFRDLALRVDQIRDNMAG

JAK1 kinase, sequence (P23458 850-1154): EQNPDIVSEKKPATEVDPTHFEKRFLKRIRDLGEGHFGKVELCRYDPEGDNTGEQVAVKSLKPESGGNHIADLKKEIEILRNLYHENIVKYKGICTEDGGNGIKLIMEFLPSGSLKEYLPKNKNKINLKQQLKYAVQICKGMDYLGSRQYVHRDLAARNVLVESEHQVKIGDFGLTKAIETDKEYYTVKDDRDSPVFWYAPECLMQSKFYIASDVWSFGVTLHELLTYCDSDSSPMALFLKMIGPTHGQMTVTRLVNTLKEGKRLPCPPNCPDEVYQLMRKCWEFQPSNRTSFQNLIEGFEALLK

Cn1cc(Nc2ncc(C(N)=O)c(NCc3c(Cl)cccc3Cl)n2)cn1 [Example 5, 4-((2,6-dichlorobenzyl)amino)-2-((1-methyl-1H-pyrazol-4-yl)amino)pyrimidin-5-carboxamide]
IC50 (JAK1 kinase): 23.4 nM

CC(C)(C)n1cc(Nc2ncc(C(N)=O)c(NCC3CC=CC3)n2)cn1 [Example 236, 2-((1-(tert-butyl)-1H-pyrazol-4-yl)amino)-4-((cyclopent-3-en-1-ylmethyl)amino)pyrimidin-5-carboxamide]
IC50 (JAK1 kinase): 7.6 nM | IC50 (JAK2 kinase): 2.6 nM

NC(=O)c1cnc(Nc2cnn(C3CCC3)c2)nc1NCc1c(F)cccc1F [Example 135, 4-[(2,6-difluoro-benzyl)amino]-2-[(1-cyclobutyl-1H-pyrazol-4-yl)amino]pyrimidin-5-carboxamide]
IC50 (JAK1 kinase): 30.3 nM | IC50 (JAK2 kinase): 0.61 nM

NC(=O)c1cnc(Nc2cnn(C3CC3)c2)nc1NCc1c(F)cccc1F [Example 134, 4-[(2,6-difluoro-benzyl)amino]-2-[(1-cyclopropyl-1H-pyrazol-4-yl)amino]pyrimidin-5-carboxamide]
IC50 (JAK2 kinase): 1.19 nM

Cn1cc(Nc2ncc(C(N)=O)c(NCc3ccccc3)n2)cn1 [Example 1, 4-benzylamino-2-((1-methyl-1H-pyrazol-4-yl)amino)pyrimidin-5-carboxamide]
IC50 (JAK1 kinase): 84.7 nM | IC50 (JAK2 kinase): 9.5 nM

CC(C)=CCNc1nc(Nc2cnn(C(C)(C)C)c2)ncc1C(N)=O [Example 230, 2-((1-(tert-butyl)-1H-pyrazol-4-yl)amino)-4-((3-methylbut-2-en-1-yl)amino)pyrimidin-5-carboxamide]
IC50 (JAK1 kinase): 28.1 nM | IC50 (JAK2 kinase): 1.7 nM

COCCn1cc(Nc2ncc(C(N)=O)c(NCc3c(F)cccc3F)n2)cn1 [Example 6, 4-((2,6-difluorobenzyl)amino)-2-((1-(2-methoxyethyl)-1H-pyrazol-4-yl)amino)pyrimidin-5-carboxamide]
IC50 (JAK1 kinase): 29.9 nM | IC50 (JAK2 kinase): 1.27 nM

C=CCCNc1nc(Nc2cnn(C3CCOCC3)c2)ncc1C(N)=O [Example 234, 4-(but-3-en-1-ylamino)-2-((1-(tetrahydro-2H-pyran-4-yl)-1H-pyrazol-4-yl)amino)pyrimidin-5-carboxamide]
IC50 (JAK1 kinase): 31 nM | IC50 (JAK2 kinase): 1.2 nM

C=C(C)CCNc1nc(Nc2cnn(C(C)(C)C)c2)ncc1C(N)=O [Example 242, 2-((1-tert-butyl-1H-pyrazol-4-yl)amino)-4-((3-methylbut-3-en-1-yl)amino)pyrimidin-5-carboxamide]
IC50 (JAK1 kinase): 8 nM | IC50 (JAK2 kinase): 1.5 nM

C=C(C)CCCNc1nc(Nc2cnn(C(C)(C)C)c2)ncc1C(N)=O [Example 244, 2-((1-tert-butyl-1H-pyrazol-4-yl)amino)-4-((4-methylpent-4-en-1-yl)amino)pyrimidin-5-carboxamide]
IC50 (JAK1 kinase): 10.8 nM | IC50 (JAK2 kinase): 3 nM

CCn1cc(Nc2ncc(C(N)=O)c(NCc3c(F)cccc3F)n2)cn1 [Example 132, 4-[(2,6-difluoro-benzyl)amino]-2-[(1-ethyl-1H-pyrazol-4-yl)amino]pyrimidin-5-carboxamide]
IC50 (JAK1 kinase): 14.3 nM | IC50 (JAK2 kinase): 0.51 nM

CC(=O)N1CCC(CNc2nc(Nc3cnn(C)c3)ncc2C(N)=O)CC1 [Example 11, 4-(((1-acetylpiperidin-4-yl)methyl)amino)-2-((1-methyl-1H-pyrazol-4-yl)amino)pyrimidin-5-carboxamide]
IC50 (JAK2 kinase): 33.3 nM

Cc1cccc(C)c1CNc1nc(Nc2cnn(CCO)c2)ncc1C(N)=O [Example 174, 4-[(2,6-dimethyl-benzyl)amino]-2-[[1-(2-hydroxy-ethyl)-1H-pyrazol-4-yl]amino]pyrimidin-5-carboxamide]
IC50 (JAK1 kinase): 54.7 nM | IC50 (JAK2 kinase): 3.06 nM

CCn1cc(Nc2ncc(C(N)=O)c(NCc3c(F)cccc3OC)n2)cn1 [Example 150, 4-[(2-fluoro-6-methoxybenzyl)amino]-2-[(1-ethyl-1H-pyrazol-4-yl)amino]pyrimidin-5-carboxamide]
IC50 (JAK1 kinase): 3.22 nM

CC(C)=CCCCNc1nc(Nc2cnn(C(C)(C)C)c2)ncc1C(N)=O [Example 245, 2-((1-tert-butyl-1H-pyrazol-4-yl)amino)-4-((5-methylhex-4-en-1-yl)amino)pyrimidin-5-carboxamide]
IC50 (JAK1 kinase): 40.8 nM | IC50 (JAK2 kinase): 16.9 nM

C=CCNc1nc(Nc2cnn(C(C)(C)C)c2)ncc1C(N)=O [Example 238, 4-(allylamino)-2-((1-(tert-butyl)-1H-pyrazol-4-yl)amino)pyrimidin-5-carboxamide]
IC50 (JAK1 kinase): 11.5 nM | IC50 (JAK2 kinase): 3.6 nM

C=C(C)CNc1nc(Nc2cnn(C(C)(C)C)c2)ncc1C(N)=O [Example 229, 2-((1-tert-butyl-1H-pyrazol-4-yl)amino)-4-((2-methylallyl)amino)pyrimidin-5-carboxamide]
IC50 (JAK2 kinase): 2.8 nM

CC(C)n1cc(Nc2ncc(C(N)=O)c(NCc3c(F)cccc3F)n2)cn1 [Example 133, 4-[(2,6-difluoro-benzyl)amino]-2-[(1-isopropyl-1H-pyrazol-4-yl)amino]pyrimidin-5-carboxamide]
IC50 (JAK1 kinase): 22.8 nM | IC50 (JAK2 kinase): 0.47 nM

COc1cccc(F)c1CNc1nc(Nc2cnn(C(C)C)c2)ncc1C(N)=O [Example 151, 4-[(2-fluoro-6-methoxybenzyl)amino]-2-[(1-isopropyl-1H-pyrazol-4-yl)amino]pyrimidin-5-carboxamide]
IC50 (JAK1 kinase): 2.77 nM | IC50 (JAK2 kinase): 0.61 nM

CC(C)(O)Cn1cc(Nc2ncc(C(N)=O)c(NCc3c(F)cccc3F)n2)cn1 [Example 145, 4-[(2,6-difluoro-benzyl)amino]-2-[[1-(2-hydroxy-2-methylpropyl)-1H-pyrazol-4-yl]amino]pyrimidin-5-carboxamide]
IC50 (JAK1 kinase): 20.3 nM | IC50 (JAK2 kinase): 2.08 nM

COCCn1cc(Nc2ncc(C(N)=O)c(NCc3c(F)cccc3OC)n2)cn1 [Example 7, 4-((2-fluoro-6-methoxybenzyl)amino)-2-((1-(2-methoxyethyl)-1H-pyrazol-4-yl)amino)pyrimidin-5-carboxamide]
IC50 (JAK1 kinase): 9.18 nM | IC50 (JAK2 kinase): 1.01 nM

CC(C)=CCNc1nc(Nc2cnn(C3CCOCC3)c2)ncc1C(N)=O [Example 233, 4-((3-methylbut-2-en-1-yl)amino)-2-((1-(tetrahydro-2H-pyran-4-yl)-1H-pyrazol-4-yl)amino)pyrimidin-5-carboxamide]
IC50 (JAK1 kinase): 6.5 nM | IC50 (JAK2 kinase): 0.9 nM

C=C(C)CNc1nc(Nc2cnn(C3CCOCC3)c2)ncc1C(N)=O [Example 232, 4-((2-methylallyl)amino)-2-((1-(tetrahydro-2H-pyran-4-yl)-1H-pyrazol-4-yl)amino)pyrimidin-5-carboxamide]
IC50 (JAK1 kinase): 34.4 nM | IC50 (JAK2 kinase): 2 nM

C=CCCNc1nc(Nc2cnn(C(C)(C)C)c2)ncc1C(N)=O [Example 228, 4-(but-3-en-1-ylamino)-2-((1-(tert-butyl)-1H-pyrazol-4-yl)amino)pyrimidin-5-carboxamide]
IC50 (JAK2 kinase): 13.9 nM

COc1ccccc1CNc1nc(Nc2cnn(CCO)c2)ncc1C(N)=O [Example 172, 4-[(2-methoxybenzyl)amino]-2-[[1-(2-hydroxyethyl)-1H-pyrazol-4-yl]amino]pyrimidin-5-carboxamide]
IC50 (JAK1 kinase): 15.6 nM | IC50 (JAK2 kinase): 0.95 nM

COc1ccccc1CNc1nc(Nc2cnn(C)c2)ncc1C(N)=O [Example 2, 4-((2-methoxybenzyl)amino)-2-((1-methyl-1H-pyrazol-4-yl)amino)pyrimidin-5-carboxamide]
IC50 (JAK1 kinase): 2.53 nM | IC50 (JAK2 kinase): 2.19 nM

CC(C)C/C=C/CNc1nc(Nc2cnn(C(C)(C)C)c2)ncc1C(N)=O [Example 246, (E)-2-((1-tert-butyl-1H-pyrazol-4-yl)amino)-4-((5-methylhex-2-en-1-yl)amino)pyrimidin-5-carboxamide]
IC50 (JAK1 kinase): 345 nM | IC50 (JAK2 kinase): 42.5 nM

COc1cccc(F)c1CNc1nc(Nc2cnn(C)c2)ncc1C(N)=O [Example 3, 4-((2-fluoro-6-methoxybenzyl)amino)-2-((1-methyl-1H-pyrazol-4-yl)amino)pyrimidin-5-carboxamide]
IC50 (JAK1 kinase): 2.81 nM | IC50 (JAK2 kinase): 0.57 nM

CC(=O)N1CCC(CCNc2nc(Nc3cnn(C)c3)ncc2C(N)=O)CC1 [Example 12, 4-((2-(1-acetylpiperidin-4-yl)ethyl)amino)-2-((1-methyl-1H-pyrazol-4-yl)amino)pyrimidin-5-carboxamide]
IC50 (JAK1 kinase): 352 nM

NC(=O)c1cnc(Nc2cnn(CC3CCCO3)c2)nc1NCc1c(F)cccc1F (centres unmarked) [Example 138, 4-[(2,6-difluoro-benzyl)amino]-2-[[1-((tetrahydro-furan-2-yl)methyl)-1H-pyrazol-4-yl]amino]pyrimidin-5-carboxamide]
IC50 (JAK1 kinase): 88.9 nM | IC50 (JAK2 kinase): 1.24 nM

Cn1cc(Nc2ncc(C(N)=O)c(NCCCCCO)n2)cn1 [Example 8, 4-((5-hydroxypentyl)amino)-2-((1-methyl-1H-pyrazol-4-yl)amino)pyrimidin-5-carboxamide]
IC50 (JAK1 kinase): 80.3 nM

NC(=O)c1cnc(Nc2cnn(C3CCOCC3)c2)nc1NCc1c(F)cccc1F [Example 137, 4-[(2,6-difluoro-benzyl)amino]-2-[[1-(tetra hydro-2H-pyran-4-yl)-1H-pyrazol-4-yl)amino]pyrimidin-5-carboxamide]
IC50 (JAK1 kinase): 16.4 nM | IC50 (JAK2 kinase): 0.27 nM
